Experimental findings from patent publication US6936585B2, “Corticotropin releasing factor 2 receptor agonists” (priority 2002, dated 2005) are described below.

One experiment addresses T1, CRF2R (Homo sapiens, UniProt Q13324).
T1 sequence (Q13324 1-411): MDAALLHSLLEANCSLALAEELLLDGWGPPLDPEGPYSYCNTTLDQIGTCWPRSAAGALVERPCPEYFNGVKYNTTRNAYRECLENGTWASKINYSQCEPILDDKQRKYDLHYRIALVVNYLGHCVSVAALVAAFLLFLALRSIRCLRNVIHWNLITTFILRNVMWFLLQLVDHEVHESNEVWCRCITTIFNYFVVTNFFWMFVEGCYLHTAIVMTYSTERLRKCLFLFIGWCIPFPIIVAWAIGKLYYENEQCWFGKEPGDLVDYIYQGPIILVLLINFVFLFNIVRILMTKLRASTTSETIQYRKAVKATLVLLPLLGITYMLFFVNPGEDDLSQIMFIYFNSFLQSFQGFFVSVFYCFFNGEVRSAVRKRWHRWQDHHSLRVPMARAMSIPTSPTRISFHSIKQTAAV
Briefly: CRF2R agonist activation (EC50 / Emax), called comparative CRF binding. The format is cell-based. Conditions: for Emax: read-out: CRF2R Emax; for EC50: read-out: CRF2R EC50. The method, boiled down:
(§1)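 Peptides are tested on cells bearing CRF1R or CRF2R, full length or as ligand-binding-domain constructs coupled to reporters or G proteins. Activation is scored by cAMP rise, measured in lysates or by CRE-reporter output, against vehicle control.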

For the next experiment, the target named is T2, CRF1R (Homo sapiens, UniProt P34998).
T2 sequence (P34998 24-415): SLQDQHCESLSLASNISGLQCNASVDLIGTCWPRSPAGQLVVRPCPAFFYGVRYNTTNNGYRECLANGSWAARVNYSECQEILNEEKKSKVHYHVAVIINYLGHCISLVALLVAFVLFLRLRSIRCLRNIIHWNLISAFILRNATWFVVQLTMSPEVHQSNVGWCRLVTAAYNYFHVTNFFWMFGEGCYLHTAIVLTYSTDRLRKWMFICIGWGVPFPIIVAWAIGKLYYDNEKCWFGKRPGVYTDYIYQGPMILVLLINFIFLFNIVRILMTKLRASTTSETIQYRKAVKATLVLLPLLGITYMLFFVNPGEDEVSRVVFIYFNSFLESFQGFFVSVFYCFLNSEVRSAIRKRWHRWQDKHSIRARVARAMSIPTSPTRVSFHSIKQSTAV
Briefly: CRF1R agonist activation (EC50 / Emax), called comparative CRF binding. The following applies: for Emax: read-out: CRF1R Emax; for EC50: read-out: CRF1R EC50. The format is cell-based. The method, boiled down:
as §1

Each structure is given as a SMILES string. Peptide text beside a SMILES is read from it.

As a reminder, the Emax is the greatest response seen or fitted, relative to the assay's reference. As for `CC[C@H](C)[C@H](N)C(=O)N[C@H](C(=O)N[C@@H](CC(C)C)C(=O)N[C@@H](CO)C(=O)N[C@@H](CC(C)C)C(=O)N[C@@H](CC(=O)O)C(=O)N[C@H](C(=O)N1CCC[C@H]1C(=O)N[C@H](C(=O)NCC(=O)N[C@@H](CC(C)C)C(=O)N[C@@H](CC(C)C)C(=O)N[C@@H](CCC(N)=O)C(=O)N[C@H](C(=O)N[C@@H](CC(C)C)C(=O)N[C@@H](CC(C)C)C(=O)N[C@@H](CCC(=O)O)C(=O)N[C@@H](CCC(N)=O)C(=O)N[C@@H](C)C(=O)N[C@@H](CCCNC(=N)N)C(=O)N[C@@H](C)C(=O)N[C@@H](CCC(=O)O)C(=O)N[C@@H](C)C(=O)N[C@@H](C)C(=O)N[C@@H](CCCNC(=N)N)C(=O)N[C@@H](CCC(=O)O)C(=O)N[C@@H](CCC(N)=O)C(=O)N[C@@H](C)C(=O)N[C@H](C(=O)N[C@H](C(=O)N[C@@H](CC(N)=O)C(=O)N[C@@H](C)C(=O)N[C@@H](CCCNC(=N)N)C(=O)N[C@H](C(=O)N[C@@H](CC(C)C)C(=O)N[C@@H](C)C(=O)N[C@@H](CCCNC(=N)N)C(=O)N[C@H](C(N)=O)C(C)C)[C@@H](C)CC)[C@@H](C)O)[C@@H](C)O)[C@@H](C)CC)[C@@H](C)CC)C(C)C)C(C)C` [compound 122] (H-IVLSLDVPIGLLQILLEQARAEAAREQATTNARILARV-NH2; N-terminus assumed), the Emax at CRF2R came to 97%; at CRF1R, 10.7%.
The like results for `CC[C@H](C)[C@H](N)C(=O)N[C@H](C(=O)N[C@@H](CC(C)C)C(=O)N[C@@H](CO)C(=O)N[C@@H](CC(C)C)C(=O)N[C@@H](CC(=O)O)C(=O)N[C@H](C(=O)N1CCC[C@H]1C(=O)N[C@H](C(=O)NCC(=O)N[C@@H](CC(C)C)C(=O)N[C@@H](CC(C)C)C(=O)N[C@@H](CCC(N)=O)C(=O)N[C@H](C(=O)N[C@@H](CC(C)C)C(=O)N[C@@H](CC(C)C)C(=O)N[C@@H](CCC(=O)O)C(=O)N[C@@H](CCC(N)=O)C(=O)N[C@@H](C)C(=O)N[C@@H](CCCNC(=N)N)C(=O)N[C@@H](CCC(N)=O)C(=O)N[C@@H](CCC(=O)O)C(=O)N[C@@H](C)C(=O)N[C@@H](C)C(=O)N[C@@H](CCCNC(=N)N)C(=O)N[C@@H](CCC(=O)O)C(=O)N[C@@H](CCC(N)=O)C(=O)N[C@@H](C)C(=O)N[C@H](C(=O)N[C@H](C(=O)N[C@@H](CC(N)=O)C(=O)N[C@@H](C)C(=O)N[C@@H](CCCNC(=N)N)C(=O)N[C@H](C(=O)N[C@@H](CC(C)C)C(=O)N[C@@H](C)C(=O)N[C@@H](CCCNC(=N)N)C(=O)N[C@H](C(N)=O)C(C)C)[C@@H](C)CC)[C@@H](C)O)[C@@H](C)O)[C@@H](C)CC)[C@@H](C)CC)C(C)C)C(C)C` [compound 123] (H-IVLSLDVPIGLLQILLEQARQEAAREQATTNARILARV-NH2; N-terminus assumed) were, in that order, 93.8% and 9.6%.
Broadly, the EC50 is the concentration giving half of the maximal effect. As to `CC[C@H](C)[C@H](N)C(=O)N[C@H](C(=O)N[C@@H](CC(C)C)C(=O)N[C@@H](CO)C(=O)N[C@@H](CC(C)C)C(=O)N[C@@H](CC(=O)O)C(=O)N[C@H](C(=O)N1CCC[C@H]1C(=O)N[C@H](C(=O)NCC(=O)N[C@@H](CC(C)C)C(=O)N[C@@H](CC(C)C)C(=O)N[C@@H](CCC(N)=O)C(=O)N[C@H](C(=O)N[C@@H](CC(C)C)C(=O)N[C@@H](CC(C)C)C(=O)N[C@@H](CCC(=O)O)C(=O)N[C@@H](CCC(N)=O)C(=O)N[C@@H](C)C(=O)N[C@@H](CCCCN)C(=O)N[C@@H](CCC(N)=O)C(=O)N[C@@H](CCC(=O)O)C(=O)N[C@@H](C)C(=O)N[C@@H](C)C(=O)N[C@@H](CCCNC(=N)N)C(=O)N[C@@H](CCC(=O)O)C(=O)N[C@@H](CCC(N)=O)C(=O)N[C@@H](C)C(=O)N[C@H](C(=O)N[C@H](C(=O)N[C@@H](CC(N)=O)C(=O)N[C@@H](C)C(=O)N[C@@H](CCCNC(=N)N)C(=O)N[C@H](C(=O)N[C@@H](CC(C)C)C(=O)N[C@@H](C)C(=O)N[C@@H](CCCNC(=N)N)C(=O)N[C@H](C(N)=O)C(C)C)[C@@H](C)CC)[C@@H](C)O)[C@@H](C)O)[C@@H](C)CC)[C@@H](C)CC)C(C)C)C(C)C` [compound 124] (H-IVLSLDVPIGLLQILLEQAKQEAAREQATTNARILARV-NH2; N-terminus assumed), at CRF2R, the EC50 was 3.49 nM and the Emax is 94%. Moreover, on CRF1R, the EC50 was over 100 nM and the Emax was found to be 6%.
As for `CC[C@H](C)[C@H](N)C(=O)N[C@H](C(=O)N[C@@H](CC(C)C)C(=O)N[C@@H](CO)C(=O)N[C@@H](CC(C)C)C(=O)N[C@@H](CC(=O)O)C(=O)N[C@H](C(=O)N1CCC[C@H]1C(=O)N[C@H](C(=O)NCC(=O)N[C@@H](CC(C)C)C(=O)N[C@@H](CC(C)C)C(=O)N[C@@H](CCC(N)=O)C(=O)N[C@H](C(=O)N[C@@H](CC(C)C)C(=O)N[C@@H](CC(C)C)C(=O)N[C@@H](CCC(=O)O)C(=O)N[C@@H](CCC(N)=O)C(=O)N[C@@H](CCC(=O)O)C(=O)N[C@@H](CCCCN)C(=O)N[C@@H](CCC(N)=O)C(=O)N[C@@H](CCC(=O)O)C(=O)N[C@@H](C)C(=O)N[C@@H](C)C(=O)N[C@@H](CCCNC(=N)N)C(=O)N[C@@H](CCC(=O)O)C(=O)N[C@@H](CCC(N)=O)C(=O)N[C@@H](C)C(=O)N[C@H](C(=O)N[C@H](C(=O)N[C@@H](CC(N)=O)C(=O)N[C@@H](C)C(=O)N[C@@H](CCCNC(=N)N)C(=O)N[C@H](C(=O)N[C@@H](CC(C)C)C(=O)N[C@@H](C)C(=O)N[C@@H](CCCNC(=N)N)C(=O)N[C@H](C(N)=O)C(C)C)[C@@H](C)CC)[C@@H](C)O)[C@@H](C)O)[C@@H](C)CC)[C@@H](C)CC)C(C)C)C(C)C` [compound 125] (H-IVLSLDVPIGLLQILLEQEKQEAAREQATTNARILARV-NH2; N-terminus assumed), the Emax was determined as 99% at CRF2R and 9% at CRF1R.
With `CC[C@H](C)[C@H](N)C(=O)N[C@H](C(=O)N[C@@H](CC(C)C)C(=O)N[C@@H](CO)C(=O)N[C@@H](CC(C)C)C(=O)N[C@@H](CC(=O)O)C(=O)N[C@H](C(=O)N1CCC[C@H]1C(=O)N[C@H](C(=O)NCC(=O)N[C@@H](CC(C)C)C(=O)N[C@@H](CC(C)C)C(=O)N[C@@H](CCC(N)=O)C(=O)N[C@H](C(=O)N[C@@H](CC(C)C)C(=O)N[C@@H](CC(C)C)C(=O)N[C@@H](CCC(=O)O)C(=O)N[C@@H](CCC(N)=O)C(=O)N[C@H](C(=O)N[C@@H](CCCNC(=N)N)C(=O)N[C@@H](C)C(=O)N[C@@H](CC(=O)O)C(=O)N[C@@H](C)C(=O)N[C@@H](C)C(=O)N[C@@H](CCCNC(=N)N)C(=O)N[C@@H](CCC(=O)O)C(=O)N[C@@H](CCC(N)=O)C(=O)N[C@@H](C)C(=O)N[C@H](C(=O)N[C@H](C(=O)N[C@@H](CC(N)=O)C(=O)N[C@@H](C)C(=O)N[C@@H](CCCNC(=N)N)C(=O)N[C@H](C(=O)N[C@@H](CC(C)C)C(=O)N[C@@H](C)C(=O)N[C@@H](CCCNC(=N)N)C(=O)N[C@H](C(N)=O)C(C)C)[C@@H](C)CC)[C@@H](C)O)[C@@H](C)O)[C@@H](C)O)[C@@H](C)CC)[C@@H](C)CC)C(C)C)C(C)C` [compound 126] (H-IVLSLDVPIGLLQILLEQTRADAAREQATTNARILARV-NH2; N-terminus assumed), at CRF2R, the EC50 came to 13 nM and the maximal response (Emax) was 91%. At CRF1R, the EC50 is over 100 nM and the Emax came to 7%.
In the case of `CC[C@H](C)[C@H](N)C(=O)N[C@H](C(=O)N[C@@H](CC(C)C)C(=O)N[C@@H](CO)C(=O)N[C@@H](CC(C)C)C(=O)N[C@@H](CC(=O)O)C(=O)N[C@H](C(=O)N1CCC[C@H]1C(=O)N[C@H](C(=O)NCC(=O)N[C@@H](CC(C)C)C(=O)N[C@@H](CC(C)C)C(=O)N[C@@H](CCC(N)=O)C(=O)N[C@H](C(=O)N[C@@H](CC(C)C)C(=O)N[C@@H](CC(C)C)C(=O)N[C@@H](CCC(=O)O)C(=O)N[C@@H](CCC(N)=O)C(=O)N[C@H](C(=O)N[C@@H](CCCNC(=N)N)C(=O)N[C@@H](C)C(=O)N[C@@H](CCCNC(=N)N)C(=O)N[C@@H](C)C(=O)N[C@@H](C)C(=O)N[C@@H](CCCNC(=N)N)C(=O)N[C@@H](CCC(=O)O)C(=O)N[C@@H](CCC(N)=O)C(=O)N[C@@H](C)C(=O)N[C@H](C(=O)N[C@H](C(=O)N[C@@H](CC(N)=O)C(=O)N[C@@H](C)C(=O)N[C@@H](CCCNC(=N)N)C(=O)N[C@H](C(=O)N[C@@H](CC(C)C)C(=O)N[C@@H](C)C(=O)N[C@@H](CCCNC(=N)N)C(=O)N[C@H](C(N)=O)C(C)C)[C@@H](C)CC)[C@@H](C)O)[C@@H](C)O)[C@@H](C)O)[C@@H](C)CC)[C@@H](C)CC)C(C)C)C(C)C` [compound 128] (H-IVLSLDVPIGLLQILLEQTRARAAREQATTNARILARV-NH2; N-terminus assumed), at CRF2R, the EC50 was found to be 2.85 nM and the Emax worked out at 98%. Further, at CRF1R, the EC50 is over 100 nM and the Emax came out at 8%.
